Experimental data published in patent publication US20090105217A1, “2-PHENYL-5-AMINO-1,3,4-OXADIAZOLES AND THEIR USE AS NICOTINIC ACETYLCHOLINE RECEPTOR LIGANDS” (priority 2007, published 2009).
Where a name gives a salt, the structure may show the parent alone.

The compounds below were run against T1, human α7 nAChR (Homo sapiens, UniProt P36544) (assay: α7 nAChR FLIPR (Fluorometric Imaging Plate Reader) Ca2+ assay, agonist EC50). Conditions: GH4C1 cells stably transfected with human α7 nAChR; Fluo-4 Ca2+ fluorescence; Examples 194 to 205 tested as the HCl salt; read-out: pEC50 value (negative logarithm of the agonist EC50) (converted).
T1 construct: host or cells: GH4C1 cells (pituitary tumor, immortalized cell line)
T1 sequence (P36544 23-502): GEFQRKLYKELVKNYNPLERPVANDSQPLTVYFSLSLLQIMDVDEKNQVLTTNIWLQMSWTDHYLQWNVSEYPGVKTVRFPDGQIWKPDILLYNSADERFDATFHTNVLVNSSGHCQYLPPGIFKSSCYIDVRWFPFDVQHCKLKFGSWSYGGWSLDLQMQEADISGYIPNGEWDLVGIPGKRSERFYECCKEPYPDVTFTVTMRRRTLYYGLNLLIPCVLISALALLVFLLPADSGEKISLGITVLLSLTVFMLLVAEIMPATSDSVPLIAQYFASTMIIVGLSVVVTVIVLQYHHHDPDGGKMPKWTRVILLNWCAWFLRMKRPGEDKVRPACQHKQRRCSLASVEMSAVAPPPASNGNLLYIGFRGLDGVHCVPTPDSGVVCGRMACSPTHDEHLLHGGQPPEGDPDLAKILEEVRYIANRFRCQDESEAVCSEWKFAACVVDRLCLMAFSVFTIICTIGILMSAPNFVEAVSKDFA
Type: cell-based
Protocol: α7 nAChR FLIPR® (Fluorometric Imaging Plate Reader) Assay
Function of the heterologous expressed α7 nAChR was assessed by a FLIPR-Ca^2+ assay. Since nAChRs are non-selective cation channels with high permeability to Ca^2+, these studies were carried out by measuring changes of intracellular Ca^2+ concentration using the Ca^2+-chelating fluorescent dye Fluo-4 and FLIPR® (Fluorometric Imaging Plate Reader) technology.
GH4C1cells (pituitary tumor, immortalized cell line) stably transfected with human α7 nAChR (Biocat ID 96986), were thawed, suspended in growth medium (Ham's Nutrient Mixture F10—Ham's F10, Invitrogen 31550-023, 15% Horse Serum heat inactivated—Invitrogen 26050-047, 2.5% Foetal Bovine Serum—FBS, Gibco 10500-064, 200 μg/ml Hygromycin B—Invitrogen, 10687-010, 10 mg/L Phenol Red—Sigma, P 0290, 1 mM Glutamine—Invitrogen, 25030-024) and plated in 500 cm^2 Triple Flask.
Cells were then incubated at 30° C., 5% CO2 for 72 hours.
On the day of the experiment, cells were washed twice with Assay Buffer (AB) (145 mM NaCl, 5 mM KCl, 1 mM MgCl2, 2 mM CaCl2, 20 mM HEPES, 5.5 mM Glucose pH=7.3) containing 2.5 mM Probenecid. Changes in the intracellular Ca^2+ content of stably transfected cells were measured using the Ca^2+ chelating dye Fluo-4 (Tef Labs 0152) in conjunction with a FLIPR® (Molecular Devices). The cell permeant dye Fluo-4 was prepared to a concentration of 1 mM in 100% DMSO and 10% Pluronic acid. The dye was then diluted with AB to a final concentration of 2 μM and placed on the cells. After 45-60 minutes dye loading incubation at 37° C., the unincorporated dye was removed from the cells by washing (80 μL, 3 times) with AB, and a final volume of 30 μL/well of AB was left in each well.
Plates containing test compounds (dissolved in 100% DMSO at 2 mM and serially diluted with DMSO) were copied into “daughter” plates (1 μL/well dispensation). Just prior to starting the assay, the “daughter” plate was diluted with 50 μL/well of AB.
The plates were then placed in the FLIPR®, and cell fluorescence was determined before drug addition (30 seconds) and monitored (excitation 488 nm, emission 510-580 nm) immediately following exposure to compounds. Maximum fluorescence values were recorded and fitted for agonist EC50 calculations.
The results are expressed as pEC50 values. A pEC50 is the negative logarithm of the agonist EC50 calculation as determined in the α7 nAChR FLIPR® assay. […] Variations in pEC50 may arise between tests.
`CCN(CC)CCCNc1nnc(-c2ccc(NC(=O)c3ccccc3F)cc2OC)o1` [Example 2, N-[4-(5-{[3-(Diethylamino)propyl]amino}-1,3,4-oxadiazol-2-yl)-3-(methyloxy)phenyl]-2-fluorobenzamidehydrochloride] was tested, and the EC50 was ≤ 1000 nM. In the case of `O=C(Nc1ccc(-c2nnc(NCCCN3CCCCC3)o2)cc1)c1cccs1` [Example 8, N-[4-(5-{[3-(1-Piperidinyl)propyl]amino}-1,3,4-oxadiazol-2-yl)phenyl]-2-thiophenecarboxamidehydrochloride], the EC50 is reported as ≤ 1000 nM. In the case of `O=C(Nc1ccc(-c2nnc(NCCCN3CCCCC3)o2)cc1)c1ccsc1` [Example 10, N-[4-(5-{[3-(1-Piperidinyl)propyl]amino}-1,3,4-oxadiazol-2-yl)phenyl]-3-thiophenecarboxamidehydrochloride], the EC50 is reported as ≤ 1000 nM. For `O=C(Nc1ccc(-c2nnc(NCCCN3CCCCC3)o2)cc1)c1cccc(Cl)c1` [Example 12, 3-Chloro-N-[4-(5-{[3-(1-piperidinyl)propyl]amino}-1,3,4-oxadiazol-2-yl)phenyl]benzamidehydrochloride], the EC50 was ≤ 1000 nM. In the case of `O=C(Nc1ccc(-c2nnc(NCCCN3CCCCC3)o2)cc1)c1cccnc1` [Example 13, N-[4-(5-{[3-(1-Piperidinyl)propyl]amino}-1,3,4-oxadiazol-2-yl)phenyl]-3-pyridinecarboxamidehydrochloride], the EC50 is reported as ≤ 1000 nM. `O=C(Nc1ccc(-c2nnc(NCCCN3CCCCC3)o2)cc1)c1cccc(F)c1F` [Example 16, 2,3-Difluoro-N-[4-(5-{[3-(1-piperidinyl)propyl]amino}-1,3,4-oxadiazol-2-yl)phenyl]benzamidehydrochloride] was tested, and the EC50 was ≤ 1000 nM. In the case of `O=C(Nc1ccc(-c2nnc(NCCCN3CCCCC3)o2)cc1)c1ccccn1` [Example 17, N-[4-(5-{[3-(1-Piperidinyl)propyl]amino}-1,3,4-oxadiazol-2-yl)phenyl]-2-pyridinecarboxamidehydrochloride], the EC50 is reported as ≤ 1000 nM. `O=C(Nc1ccc(-c2nnc(NCCCN3CCCCC3)o2)cc1)c1ccc(Cl)cc1` [Example 18, 4-Chloro-N-[4-(5-{[3-(1-piperidinyl)propyl]amino}-1,3,4-oxadiazol-2-yl)phenyl]benzamidehydrochloride] was tested, and the EC50 was ≤ 1000 nM. `O=C(Nc1ccc(-c2nnc(NCCCCN3CCC(F)CC3)o2)c(F)c1)c1ccccc1F` [Example 26, 2-Fluoro-N-[3-fluoro-4-(5-{[4-(4-fluoro-1-piperidinyl)butyl]amino}-1,3,4-oxadiazol-2-yl)phenyl]benzamide] was tested, and the EC50 was ≤ 100 nM. In the case of `COc1cc(NC(=O)C2CCCCC2)ccc1-c1nnc(NCCCN2CCCCC2)o1` [Example 28, N-[3-(methyloxy)-4-(5-{[3-(1-piperidinyl)propyl]amino}-1,3,4-oxadiazol-2-yl)phenyl]cyclohexanecarboxamide], the EC50 is reported as ≤ 1000 nM. With `COc1cc(NC(=O)c2ccccc2)ccc1-c1nnc(NCCCCN2CCCCC2)o1` [Example 32, N-[3-(methyloxy)-4-(5-{[4-(1-piperidinyl)butyl]amino}-1,3,4-oxadiazol-2-yl)phenyl]benzamide] the EC50 was ≤ 100 nM. For `O=C(Nc1ccc(-c2nnc(NCCCCN3CCCCC3)o2)c(F)c1)c1ccccc1F` [Example 46, 2-fluoro-N-[3-fluoro-4-(5-{[4-(1-piperidinyl)butyl]amino}-1,3,4-oxadiazol-2-yl)phenyl]benzamide], the EC50 was ≤ 100 nM. `O=C(Nc1ccc(-c2nnc(NCCCN3CCCC3)o2)c(F)c1)c1ccccc1F` [Example 47, 2-fluoro-N-[3-fluoro-4-(5-{[3-(1-pyrrolidinyl)propyl]amino}-1,3,4-oxadiazol-2-yl)phenyl]benzamide] was tested, and the EC50 was ≤ 1000 nM. In the case of `O=C(Nc1ccc(-c2nnc(NCCCCN3CCCC3)o2)c(F)c1)c1ccccc1F` [Example 48, 2-fluoro-N-[3-fluoro-4-(5-{[4-(1-pyrrolidinyl)butyl]amino}-1,3,4-oxadiazol-2-yl)phenyl]benzamide], the EC50 is reported as ≤ 100 nM. `CCN(CC)CCCNc1nnc(-c2ccc(NC(=O)c3ccccc3F)cc2F)o1` [Example 50, N-[4-(5-{[3-(diethylamino)propyl]amino}-1,3,4-oxadiazol-2-yl)-3-fluorophenyl]-2-fluorobenzamide] was tested, and the EC50 was ≤ 1000 nM. With `CCN(CC)CCCCNc1nnc(-c2ccc(NC(=O)c3ccccc3F)cc2F)o1` [Example 51, N-[4-(5-{[4-(diethylamino)butyl]amino}-1,3,4-oxadiazol-2-yl)-3-fluorophenyl]-2-fluorobenzamide] the EC50 was ≤ 1000 nM. In the case of `CCN(CC)CCCCNc1nnc(-c2ccc(NC(=O)c3ccccc3F)cc2OC)o1` [Example 52, N-[4-(5-{[4-(diethylamino)butyl]amino}-1,3,4-oxadiazol-2-yl)-3-(methyloxy)phenyl]-2-fluorobenzamide], the EC50 is reported as ≤ 100 nM. `O=C(Nc1ccc(-c2nnc(NCCCN3CCCCC3)o2)c(F)c1)C1CCCCC1` [Example 53, N-[3-fluoro-4-(5-{[3-(1-piperidinyl)propyl]amino}-1,3,4-oxadiazol-2-yl)phenyl]cyclohexanecarboxamide] was tested, and the EC50 was ≤ 1000 nM. For `O=C(Nc1ccc(-c2nnc(NCCCCN3CCCCC3)o2)c(F)c1)C1CCCCC1` [Example 54, N-[3-fluoro-4-(5-{[4-(1-piperidinyl)butyl]amino}-1,3,4-oxadiazol-2-yl)phenyl]cyclohexanecarboxamide], the EC50 was ≤ 100 nM. `O=C(Nc1ccc(-c2nnc(NCCCCN3CCCC3)o2)c(F)c1)C1CCCCC1` [Example 55, N-[3-fluoro-4-(5-{[4-(1-pyrrolidinyl)butyl]amino}-1,3,4-oxadiazol-2-yl)phenyl]cyclohexanecarboxamide] was tested, and the EC50 was ≤ 100 nM. With `O=C(Nc1ccc(-c2nnc(NCCCN3CCCC3)o2)c(F)c1)C1CCCCC1` [Example 56, N-[3-fluoro-4-(5-{[3-(1-pyrrolidinyl)propyl]amino}-1,3,4-oxadiazol-2-yl)phenyl]cyclohexanecarboxamide] the EC50 was ≤ 1000 nM. `O=C(Nc1ccc(-c2nnc(NCCCCN3CCOCC3)o2)c(F)c1)C1CCCCC1` [Example 58, N-[3-fluoro-4-(5-{[4-(4-morpholinyl)butyl]amino}-1,3,4-oxadiazol-2-yl)phenyl]cyclohexanecarboxamide] was tested, and the EC50 was ≤ 1000 nM. `CCN(CC)CCCNc1nnc(-c2ccc(NC(=O)C3CCCCC3)cc2F)o1` [Example 59, N-[4-(5-{[3-(diethylamino)propyl]amino}-1,3,4-oxadiazol-2-yl)-3-fluorophenyl]cyclohexanecarboxamide] was tested, and the EC50 was ≤ 1000 nM. `CCN(CC)CCCCNc1nnc(-c2ccc(NC(=O)C3CCCCC3)cc2F)o1` [Example 60, N-[4-(5-{[4-(diethylamino)butyl]amino}-1,3,4-oxadiazol-2-yl)-3-fluorophenyl]cyclohexanecarboxamide] was tested, and the EC50 was ≤ 1000 nM. For `O=C(Nc1ccc(-c2nnc(NCCCN3CCCCC3)o2)c(C(F)(F)F)c1)C1CCCCC1` [Example 61, N-[4-(5-{[3-(1-piperidinyl)propyl]amino}-1,3,4-oxadiazol-2-yl)-3-(trifluoromethyl)phenyl]cyclohexanecarboxamide], the EC50 was ≤ 1000 nM. For `O=C(Nc1ccc(-c2nnc(NCCCCN3CCCCC3)o2)c(C(F)(F)F)c1)C1CCCCC1` [Example 62, N-[4-(5-{[4-(1-piperidinyl)butyl]amino}-1,3,4-oxadiazol-2-yl)-3-(trifluoromethyl)phenyl]cyclohexanecarboxamide], the EC50 was ≤ 100 nM.

Same assay, conditions: alpha 7 assay described in the Examples
In the case of `CC(C)(C)C(=O)Nc1ccc(-c2nnc(NCCCN3CCCCC3)o2)cc1` [2,2-dimethyl-N-[4-(5-{[3-(1-piperidinyl)propyl]amino}-1,3,4-oxadiazol-2-yl)phenyl]propanamide], the “activity in the alpha 7 assay” value is reported as “not found to have activity”.
